Test results taken from ChEMBL document CHEMBL1131794, “The synthesis and evaluation of 6-alkylidene-2'beta-substituted penam sulfones as beta-lactamase inhibitors” (Bioorg Med Chem Lett, 1999).
pIC50: −log10 of the molar value.

How the values were obtained:
Beta-lactamase TEM = Beta-lactamase TEM (Escherichia coli, UniProt P62593); experiment: Inhibitory activity against serine Beta-lactamase TEM derived from […]; format: single protein
Beta-lactamase [1] = biological target: T1, Beta-lactamase (Staphylococcus aureus, UniProt P00807); experiment: Inhibitory activity against serine Beta-lactamase derived from Staphylococcus aureus
Beta-lactamase [2] = biological target: T1, Beta-lactamase; experiment: Inhibitory activity against serine beta-lactamase, PC1 (class A) derived from Staphylococcus aureus
Escherichia coli [3] = experiment: In vitro synergistic activity against Escherichia coli C600N + (IRT-2); format: functional; note: test concentration or dose not given here
Escherichia coli [4] = experiment: In vitro synergistic activity against Escherichia coli C600N + (Imi-1); format: functional
Escherichia coli [5] = experiment: In vitro synergistic activity against Escherichia coli C600N + (OXA-10) {PSE-2}; format: functional
Pseudomonas aeruginosa = experiment: In vitro synergistic activity against Pseudomonas aeruginosa Ps505A1 (AmpC derepressed); format: functional; note: test concentration or dose not given here
Escherichia coli [6] = experiment: In vitro synergistic activity against Escherichia coli ATCC 25922 (no beta-lactamase); format: functional; note: test concentration or dose not given here
Escherichia coli [7] = experiment: In vitro synergistic activity against Escherichia coli 4100 (no beta-lactamase); format: functional
Escherichia coli [8] = experiment: In vitro synergistic activity against Escherichia coli C600N + (SHV-1); format: functional
Escherichia coli [9] = experiment: In vitro synergistic activity against Escherichia coli C600N + (L1); format: functional
Escherichia coli [10] = experiment: In vitro synergistic activity against Escherichia coli C600N + (P99); format: functional
Aeromonas sobria = experiment: In vitro synergistic activity against Aeromonas sobria (Asb A, OXA-12, Asb M); format: functional; note: test concentration or dose not given here
Escherichia coli [11] = experiment: In vitro synergistic activity against Escherichia coli C600N + (SHV-4); format: functional
Escherichia coli [12] = experiment: In vitro synergistic activity against Escherichia coli 300 (no beta-lactamase, imp mutant); format: functional
Escherichia coli [13] = experiment: In vitro synergistic activity against Escherichia coli C600N (no beta-lactamase); format: functional
Escherichia coli [14] = experiment: In vitro synergistic activity against Escherichia coli C600N + (TEM-10); format: functional
Escherichia coli [15] = experiment: In vitro synergistic activity against Escherichia coli GC6265 (TEM-1); format: functional
Staphylococcus aureus = experiment: In vitro synergistic activity against Staphylococcus aureus (PC1); format: functional; note: test concentration or dose not given here
Klebsiella pneumoniae [16] = experiment: In vitro synergistic activity against Klebsiella pneumoniae (ACT-1 + 3 blas, IPM=S); format: functional; note: test concentration or dose not given here
Escherichia coli [17] = experiment: In vitro synergistic activity against Escherichia coli 4100 + (CCRA); format: functional
Enterobacter cloacae [18] = experiment: In vitro synergistic activity against Enterobacter cloacae SC12629 (AmpC inducible); format: functional; note: test concentration or dose not given here
Escherichia coli [19] = experiment: In vitro synergistic activity against Escherichia coli C600N + (PSE-1); format: functional
[20] = test system: Stenotrophomonas maltophilia; experiment: In vitro synergistic activity against Stenotrophomonas maltophilia 1712(L1); format: functional; note: test concentration or dose not given here
Klebsiella aerogenes = experiment: In vitro synergistic activity against Enterobacter aerogenes GC 6268 clinical isolate; format: functional; note: test concentration or dose not given here
Escherichia coli [21] = experiment: In vitro synergistic activity against Escherichia coli GC6267 clinical isolate; format: functional
Escherichia coli [22] = experiment: In vitro synergistic activity against Escherichia coli ATCC 35218 (TEM-1); format: functional
Escherichia coli [23] = experiment: In vitro synergistic activity against Escherichia coli C600N + (Sme-1); format: functional
Escherichia coli [24] = experiment: In vitro synergistic activity against Escherichia coli C600N + (MIR-1); format: functional
Escherichia coli [25] = experiment: In vitro synergistic activity against Escherichia coli C600N + (ampR ampC); format: functional; note: test concentration or dose not given here
Klebsiella pneumoniae [26] = experiment: In vitro synergistic activity against Klebsiella pneumoniae KC2 (TEM-10); format: functional; note: test concentration or dose not given here
Klebsiella pneumoniae [27] = experiment: In vitro synergistic activity against Klebsiella pneumoniae GC 6269 clinical isolate; format: functional; note: test concentration or dose not given here
Serratia marcescens = experiment: In vitro synergistic activity against Serratia marcescens GC 4132 (Amp C); format: functional; note: test concentration or dose not given here
Escherichia coli [28] = experiment: In vitro synergistic activity against Escherichia coli 300 + (TEM-1); format: functional
Escherichia coli [29] = experiment: In vitro synergistic activity against Escherichia coli GC 6266 clinical isolate; format: functional
Escherichia coli [30] = experiment: In vitro synergistic activity against Escherichia coli C600N + (TEM-1); format: functional
Escherichia coli [31] = experiment: In vitro synergistic activity against Escherichia coli 300 + (ampR ampC); format: functional; note: test concentration or dose not given here
Enterobacter cloacae [32] = experiment: In vitro synergistic activity against Enterobacter cloacae (Imi-1+AmpC); format: functional

T1 sequence (P00807 whole entry): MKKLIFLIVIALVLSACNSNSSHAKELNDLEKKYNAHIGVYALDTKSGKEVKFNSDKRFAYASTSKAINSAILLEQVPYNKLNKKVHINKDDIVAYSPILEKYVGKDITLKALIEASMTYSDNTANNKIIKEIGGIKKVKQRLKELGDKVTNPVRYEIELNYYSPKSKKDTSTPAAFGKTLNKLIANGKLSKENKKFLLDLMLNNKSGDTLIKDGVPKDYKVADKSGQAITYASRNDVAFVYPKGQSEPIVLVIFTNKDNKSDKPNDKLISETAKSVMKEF
Chain of Beta-lactamase TEM (P62593 whole entry): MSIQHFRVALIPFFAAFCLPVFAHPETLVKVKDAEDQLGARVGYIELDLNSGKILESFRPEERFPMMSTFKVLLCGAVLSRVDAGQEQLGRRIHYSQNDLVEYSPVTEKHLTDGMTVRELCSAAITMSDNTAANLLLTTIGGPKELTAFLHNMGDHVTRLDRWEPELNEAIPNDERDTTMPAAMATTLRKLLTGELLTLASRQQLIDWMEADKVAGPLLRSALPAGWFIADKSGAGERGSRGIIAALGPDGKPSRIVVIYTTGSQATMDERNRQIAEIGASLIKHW

C[C@]1(COC(=O)Cc2ccccc2)[C@H](C(=O)O)N2C(=O)/C(=C/C(=O)O)C2S1(=O)=O (stereo not given in full)
pIC50 (Beta-lactamase TEM): 7.81 | pIC50 (Beta-lactamase [1]): 6.27 | pIC50 (Beta-lactamase [2]): 3.24

CCN1CCN(C(=O)NC(C(=O)N[C@@H]2C(=O)N3[C@@H]2SC(C)(C)[C@@H]3C(=O)[O-])c2ccccc2)C(=O)C1=O.C[C@]1(COC(=O)Cc2ccc(O)c(O)c2)[C@H](C(=O)[O-])N2C(=O)/C(=C/c3ccccn3)C2S1(=O)=O.[Na+].[Na+] (stereo not given in full)
MIC (Escherichia coli [3]): 2 µg/mL | MIC (Escherichia coli [4]): 8 µg/mL | MIC (Escherichia coli [5]): 2 µg/mL | MIC (Pseudomonas aeruginosa): 2 µg/mL | MIC (Escherichia coli [6]): 1 µg/mL | MIC (Escherichia coli [7]): < 0.06 µg/mL | MIC (Escherichia coli [8]): 2 µg/mL | MIC (Escherichia coli [9]): 64 µg/mL | MIC (Escherichia coli [10]): 16 µg/mL | MIC (Aeromonas sobria): 1 µg/mL | MIC (Escherichia coli [11]): 2 µg/mL | MIC (Escherichia coli [12]): < 0.006 µg/mL | MIC (Escherichia coli [13]): 1 µg/mL | MIC (Escherichia coli [14]): 2 µg/mL | MIC (Escherichia coli [15]): 4 µg/mL | MIC (Staphylococcus aureus): 1 µg/mL | MIC (Klebsiella pneumoniae [16]): 32 µg/mL | MIC (Escherichia coli [17]): > 64 µg/mL | MIC (Enterobacter cloacae [18]): 64 µg/mL | MIC (Escherichia coli [19]): 2 µg/mL | MIC [20]: > 64 µg/mL | MIC (Klebsiella aerogenes): 64 µg/mL | MIC (Escherichia coli [21]): 16 µg/mL | MIC (Escherichia coli [22]): 1 µg/mL | MIC (Escherichia coli [23]): 8 µg/mL | MIC (Escherichia coli [24]): 8 µg/mL | MIC (Escherichia coli [25]): 16 µg/mL | MIC (Klebsiella pneumoniae [26]): 4 µg/mL | MIC (Klebsiella pneumoniae [27]): 8 µg/mL | MIC (Serratia marcescens): 4 µg/mL | MIC (Escherichia coli [28]): 1 µg/mL | MIC (Escherichia coli [29]): 16 µg/mL | MIC (Escherichia coli [30]): 2 µg/mL | MIC (Escherichia coli [31]): 2 µg/mL | MIC (Enterobacter cloacae [32]): 16 µg/mL

C[C@]1(COC(=O)Cc2ccc(O)c(O)c2)[C@H](C(=O)O)N2C(=O)/C(=C/C(=O)O)C2S1(=O)=O (stereo not given in full)
pIC50 (Beta-lactamase [1]): 6.43 | pIC50 (Beta-lactamase [2]): 3.94

CC1(C)[C@H](C(=O)O)N2C(=O)/C(=C/C(=O)O)C2S1(=O)=O (stereo not given in full)
pIC50 (Beta-lactamase TEM): 5.74 | pIC50 (Beta-lactamase [1]): 5.35 | pIC50 (Beta-lactamase [2]): 3.97

C[C@]1(COC=O)[C@H](C(=O)O)N2C(=O)/C(=C/C(=O)O)C2S1(=O)=O (stereo not given in full)
pIC50 (Beta-lactamase [1]): 6.23 | pIC50 (Beta-lactamase [2]): 3.76
